Source: patent US8741836B2, “Polypeptides” (Novo Nordisk A/S, priority 2011, dated 2014)
Starred links: 1 amine or outer side, 2 acyl side, 3 side chain; linkers in the order of their positions; H or OH if unused. Positions of bridges follow the written chain, without caps; N, C: chain ends. Residues, ends and D or L forms follow the SMILES beside them. *: point of attachment. C20 diacid = O=C(O)CCCCCCCCCCCCCCCCCCC(=O)*; γGlu = O=C(O)[C@H](CCC(=O)[*:2])N[*:1]

Assay: Assay (III) ThT fibrillation assay for physical stability
Assay type: physicochemical
Conditions: for ThT pH 4.0 lag time: pH 4.0, ThT fibrillation assay
Method in brief: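 Freshly prepared, pH-adjusted formulations with 1 μM ThT incubated at 37 °C under 960 rpm orbital shaking (1 mm), fluorescence (ex 444, em 485 nm) read every 20 min. […] Peptide content before and after measured by reverse-phase HPLC against pramlintide standard.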

Row | SMILES | ThT pH 4.0 lag time [h] | ThT pH 4.0 lag time (physical stability in fibrillogenesis assay) [h]
1 | CC[C@H](C)[C@H](NC(=O)[C@@H]1CCCN1C(=O)CNC(=O)[C@H](Cc1ccccc1)NC(=O)[C@H](CC(N)=O)NC(=O)[C@H](CC(N)=O)NC(=O)[C@H](CO)NC(=O)[C@H](CO)NC(=O)[C@H](Cc1c[nH]cn1)NC(=O)[C@H](Cc1c[nH]cn1)NC(=O)[C@H](CC(C)C)NC(=O)[C@H](Cc1ccccc1)NC(=O)[C@H](CCC(=O)O)NC(=O)[C@H](C)NC(=O)[C@H](CC(C)C)NC(=O)[C@H](CCCNC(=N)N)NC(=O)[C@H](CCC(N)=O)NC(=O)[C@@H](NC(=O)[C@H](C)NC(=O)[C@@H]1CSSC[C@H](NC(=O)[C@H](CCCCN)NC(=O)CC[C@H](NC(=O)CCCCCCCCCCCCCCCCCCC(=O)O)C(=O)O)C(=O)N[C@@H](CC(N)=O)C(=O)N[C@@H]([C@@H](C)O)C(=O)N[C@@H](C)C(=O)N[C@@H]([C@@H](C)O)C(=O)N1)[C@@H](C)O)C(=O)N[C@@H](CC(C)C)C(=O)N1CCC[C@H]1C(=O)N1CCC[C@H]1C(=O)N[C@H](C(=O)N[C@@H](CC(N)=O)C(=O)N[C@H](C(=O)NCC(=O)N[C@@H](CO)C(=O)N[C@@H](CCCNC(=N)N)C(=O)N[C@H](C(=O)N[C@@H](Cc1ccc(O)cc1)C(N)=O)[C@@H](C)O)C(C)C)[C@@H](C)O [Example 112, N-alpha-[(S)-4-Carboxy-4-(19-carboxynonadecanoylamino)butyryl]-[Glu14,His17,Arg35]-pramlintide] ({C20 diacid-γGlu}-KCNTATCATQRLAEFLHHSSNNFGPILPPTNVGSRTY-NH2; disulfide 2-7 (inferred)) | >45 | 
2 | CC[C@H](C)[C@H](NC(=O)[C@@H]1CCCN1C(=O)CNC(=O)[C@H](Cc1ccccc1)NC(=O)[C@H](CC(N)=O)NC(=O)[C@H](CC(N)=O)NC(=O)[C@H](CO)NC(=O)[C@H](CO)NC(=O)[C@H](Cc1c[nH]cn1)NC(=O)[C@H](Cc1c[nH]cn1)NC(=O)[C@H](CC(C)C)NC(=O)[C@H](Cc1ccccc1)NC(=O)[C@H](CCC(=O)O)NC(=O)[C@H](C)NC(=O)[C@H](CC(C)C)NC(=O)[C@H](CCCNC(=N)N)NC(=O)[C@H](CCC(N)=O)NC(=O)[C@@H](NC(=O)[C@H](C)NC(=O)[C@@H]1CSSC[C@H](NC(=O)[C@H](Cc2c[nH]cn2)NC(=O)[C@H](Cc2c[nH]cn2)NC(=O)[C@H](Cc2c[nH]cn2)NC(=O)CC[C@H](NC(=O)CCCCCCCCCCCCCCCCCCC(=O)O)C(=O)O)C(=O)N[C@@H](CC(N)=O)C(=O)N[C@@H]([C@@H](C)O)C(=O)N[C@@H](C)C(=O)N[C@@H]([C@@H](C)O)C(=O)N1)[C@@H](C)O)C(=O)N[C@@H](CC(C)C)C(=O)N1CCC[C@H]1C(=O)N1CCC[C@H]1C(=O)N[C@H](C(=O)N[C@@H](CC(N)=O)C(=O)N[C@H](C(=O)NCC(=O)N[C@@H](CO)C(=O)N[C@@H](Cc1c[nH]cn1)C(=O)N[C@H](C(=O)N[C@@H](Cc1ccc(O)cc1)C(N)=O)[C@@H](C)O)C(C)C)[C@@H](C)O [Example 31, N-alpha-[(S)-4-Carboxy-4-(19-carboxynonadecanoylamino)butyryl]-His-His-[His1,Glu14,His17,His35]-pramlintide] ({C20 diacid-γGlu}-HHHCNTATCATQRLAEFLHHSSNNFGPILPPTNVGSHTY-NH2; disulfide 4-9) | >45 | 
3 | CC[C@H](C)[C@H](NC(=O)[C@@H]1CCCN1C(=O)CNC(=O)[C@H](Cc1ccccc1)NC(=O)[C@H](CC(N)=O)NC(=O)[C@H](CC(N)=O)NC(=O)[C@H](CO)NC(=O)[C@H](CO)NC(=O)[C@H](Cc1c[nH]cn1)NC(=O)[C@H](CCCNC(=N)N)NC(=O)[C@H](CC(C)C)NC(=O)[C@H](Cc1ccccc1)NC(=O)[C@H](CCC(=O)O)NC(=O)[C@H](C)NC(=O)[C@H](CC(C)C)NC(=O)[C@H](CCCNC(=N)N)NC(=O)[C@H](CCC(N)=O)NC(=O)[C@@H](NC(=O)[C@H](C)NC(=O)[C@@H]1CSSC[C@H](NC(=O)[C@H](CCCCN)NC(=O)[C@H](Cc2c[nH]cn2)NC(=O)[C@H](Cc2c[nH]cn2)NC(=O)CC[C@H](NC(=O)CCCCCCCCCCCCCCCCCCC(=O)O)C(=O)O)C(=O)N[C@@H](CC(N)=O)C(=O)N[C@@H]([C@@H](C)O)C(=O)N[C@@H](C)C(=O)N[C@@H]([C@@H](C)O)C(=O)N1)[C@@H](C)O)C(=O)N[C@@H](CC(C)C)C(=O)N1CCC[C@H]1C(=O)N1CCC[C@H]1C(=O)N[C@H](C(=O)N[C@@H](CC(N)=O)C(=O)N[C@H](C(=O)NCC(=O)N[C@@H](CO)C(=O)N[C@@H](Cc1c[nH]cn1)C(=O)N[C@H](C(=O)N[C@@H](Cc1ccc(O)cc1)C(N)=O)[C@@H](C)O)C(C)C)[C@@H](C)O [Example 69, N-alpha-[(S)-4-Carboxy-4-(19-carboxynonadecanoylamino)butyryl]-His-His-[Glu14,Arg17,His35]-pramlintide] ({C20 diacid-γGlu}-HHKCNTATCATQRLAEFLRHSSNNFGPILPPTNVGSHTY-NH2; disulfide 4-9) | >45 | 
4 | CC[C@H](C)[C@H](NC(=O)[C@@H]1CCCN1C(=O)CNC(=O)[C@H](Cc1ccccc1)NC(=O)[C@H](CC(N)=O)NC(=O)[C@H](CC(N)=O)NC(=O)[C@H](CO)NC(=O)[C@H](CO)NC(=O)[C@H](Cc1c[nH]cn1)NC(=O)[C@H](Cc1c[nH]cn1)NC(=O)[C@H](CC(C)C)NC(=O)[C@H](Cc1ccccc1)NC(=O)[C@H](CCC(=O)O)NC(=O)[C@H](C)NC(=O)[C@H](CC(C)C)NC(=O)[C@H](CCCNC(=N)N)NC(=O)[C@H](CCC(N)=O)NC(=O)[C@@H](NC(=O)[C@H](C)NC(=O)[C@@H]1CSSC[C@H](NC(=O)CNC(=O)CC[C@H](NC(=O)CCCCCCCCCCCCCCCCCCC(=O)O)C(=O)O)C(=O)N[C@@H](CC(N)=O)C(=O)N[C@@H]([C@@H](C)O)C(=O)N[C@@H](C)C(=O)N[C@@H]([C@@H](C)O)C(=O)N1)[C@@H](C)O)C(=O)N[C@@H](CC(C)C)C(=O)N1CCC[C@H]1C(=O)N1CCC[C@H]1C(=O)N[C@H](C(=O)N[C@@H](CC(N)=O)C(=O)N[C@H](C(=O)NCC(=O)N[C@@H](CO)C(=O)N[C@@H](CC(N)=O)C(=O)N[C@H](C(=O)N1CCC[C@H]1C(N)=O)[C@@H](C)O)C(C)C)[C@@H](C)O [Example 91, N-alpha-[(S)-4-Carboxy-4-(19-carboxynonadecanoylamino)butyryl]-[Gly1,Glu14,His17,Pro37]-pramlintide] ({C20 diacid-γGlu}-GCNTATCATQRLAEFLHHSSNNFGPILPPTNVGSNTP-NH2; disulfide 2-7 (inferred)) | 29 | 

More lines, now with the values ahead:

Row | ThT pH 4.0 lag time [h] | ThT pH 4.0 lag time (physical stability in fibrillogenesis assay) [h] | SMILES
5 | >45 | >45 | CC[C@H](C)[C@H](NC(=O)[C@@H]1CCCN1C(=O)CNC(=O)[C@H](Cc1ccccc1)NC(=O)[C@H](CC(N)=O)NC(=O)[C@@H](NC(=O)[C@H](CO)NC(=O)[C@H](CO)NC(=O)[C@H](Cc1c[nH]cn1)NC(=O)[C@H](Cc1c[nH]cn1)NC(=O)[C@H](CC(C)C)NC(=O)[C@H](Cc1ccccc1)NC(=O)[C@H](CCC(=O)O)NC(=O)[C@H](C)NC(=O)[C@H](CC(C)C)NC(=O)[C@H](CCCNC(=N)N)NC(=O)[C@H](CCC(N)=O)NC(=O)[C@@H](NC(=O)[C@H](C)NC(=O)[C@@H]1CSSC[C@H](NC(=O)[C@H](CCCCN)NC(=O)CC[C@H](NC(=O)CCCCCCCCCCCCCCCCCCC(=O)O)C(=O)O)C(=O)N[C@@H](CC(N)=O)C(=O)N[C@@H]([C@@H](C)O)C(=O)N[C@@H](C)C(=O)N[C@@H]([C@@H](C)O)C(=O)N1)[C@@H](C)O)[C@@H](C)O)C(=O)N[C@@H](CC(C)C)C(=O)N1CCC[C@H]1C(=O)N1CCC[C@H]1C(=O)N[C@H](C(=O)N[C@@H](CC(N)=O)C(=O)N[C@H](C(=O)NCC(=O)N[C@@H](CO)C(=O)N[C@@H](CC(N)=O)C(=O)N[C@H](C(=O)N1CCC[C@H]1C(N)=O)[C@@H](C)O)C(C)C)[C@@H](C)O [Example 146, N-alpha-[(S)-4-Carboxy-4-(19-carboxynonadecanoylamino)butyryl]-[Glu14,His17,Thr21,Pro37]-pramlintide] ({C20 diacid-γGlu}-KCNTATCATQRLAEFLHHSSTNFGPILPPTNVGSNTP-NH2; disulfide 2-7)
6 | >45 | >45 | CC[C@H](C)[C@H](NC(=O)[C@@H]1CCCN1C(=O)CNC(=O)[C@H](Cc1ccccc1)NC(=O)[C@H](CC(N)=O)NC(=O)[C@H](CCC(N)=O)NC(=O)[C@H](CO)NC(=O)[C@H](CO)NC(=O)[C@H](Cc1c[nH]cn1)NC(=O)[C@H](Cc1c[nH]cn1)NC(=O)[C@H](CC(C)C)NC(=O)[C@H](Cc1ccccc1)NC(=O)[C@H](CCC(=O)O)NC(=O)[C@H](C)NC(=O)[C@H](CC(C)C)NC(=O)[C@H](CCCNC(=N)N)NC(=O)[C@H](CCC(N)=O)NC(=O)[C@@H](NC(=O)[C@H](C)NC(=O)[C@@H]1CSSC[C@H](NC(=O)[C@H](CCCCN)NC(=O)CC[C@H](NC(=O)CCCCCCCCCCCCCCCCCCC(=O)O)C(=O)O)C(=O)N[C@@H](CC(N)=O)C(=O)N[C@@H]([C@@H](C)O)C(=O)N[C@@H](C)C(=O)N[C@@H]([C@@H](C)O)C(=O)N1)[C@@H](C)O)C(=O)N[C@@H](CC(C)C)C(=O)N1CCC[C@H]1C(=O)N1CCC[C@H]1C(=O)N[C@H](C(=O)N[C@@H](CC(N)=O)C(=O)N[C@H](C(=O)NCC(=O)N[C@@H](CO)C(=O)N[C@@H](CCC(N)=O)C(=O)N[C@H](C(=O)N1CCC[C@H]1C(N)=O)[C@@H](C)O)C(C)C)[C@@H](C)O [Example 136, N-alpha-[(S)-4-Carboxy-4-(19-carboxynonadecanoylamino)butyryl]-[Glu14,His17,Gln21,Gln35,Pro37]-pramlintide] ({C20 diacid-γGlu}-KCNTATCATQRLAEFLHHSSQNFGPILPPTNVGSQTP-NH2; disulfide 2-7 (inferred))
